Experiment: Example 3: phase 3 trial, enavogliflozin 0.3 mg vs dapagliflozin 10 mg once a day for 24 weeks added to metformin and gemigliptin in patients with type 2 diabetes (same endpoints, rescue drug)
Type: in vivo, human
Settings: week 6
Protocol: 1) when Metformin (≥1,000 mg/Day) was Administered at a Constant Dose for at Least 8 Weeks Prior to Pre-Visit (Pre-Screening) • Metformin (≥1,000 mg/day) and gemigliptin (50 mg/day) were co-administered during the 8-week stabilization period. […] 4) when Metformin (≥1,000 mg/Day) and Gemigliptin (50 mg/Day) were Co-Administered at Constant Doses for at Least 8 Weeks Prior to Pre-Visit (Prescreening) • Without a separate stabilization period, Pre-visit (pre-screening) was Visit 1 (screening).
Subjects who met the inclusion/exclusion criteria continued to receive metformin and gemigliptin while receiving a placebo of the clinical trial drug in a single-blind (subject-blinded) state for a 2-week run-in period.
Here, the randomized subjects were stratified according to the administration therapy (co-administration with two or less agents (one or two agents) or three or more agents) of a conventional hypoglycemic agent (before washout of another hypoglycemic agent) within 24 weeks prior to obtaining written informed consent and by an HbA1c value (<8% or ≥8%) at Visit 1 (screening) measured in the central laboratory.
The randomized subjects were administered two tablets of the clinical trial drug corresponding to each administration group once a day, and then visited the institution at weeks 6, 12, 18, and 24 during the 24-week administration period to conduct efficacy and safety assessments. In addition, during the clinical trial period, they were instructed to exercise regularly and control their diet without changing their daily life patterns.
• 1) Change in HbA1c at week 24 after administration of clinical trial drug compared to Visit 2 (randomization)
• 1) Change in HbA1c at each time point of weeks 6, 12, and 18 after administration of clinical trial drug compared to Visit 2 (randomization) • 2) Change in FPG at each time point of weeks 6, 12, 18, and 24 after administration of clinical trial drug compared to Visit 2 (randomization) • 3) Proportion of subjects achieving HbA1c<7% at each time point of weeks 6, 12, 18, and 24 after administration of clinical trial drug • 4) Proportion of subjects achieving HbA1c<6.5% at each time point of weeks 6, 12, 18, and 24 after administration of clinical trial drug • 5) Proportion of subjects achieving therapeutic response (HbA1c change (HbA1c at Visit 2—HbA1c at each evaluation time point)>0.5% or HbA1c<7% at each evaluation time point compared to Visit 2 (randomization)) at each time point of weeks 6, 12, 18, and 24 after administration of clinical trial drug • 6) Proportion of subjects achieving therapeutic response (HbA1c change (HbA1c at Visit 2—HbA1c at each evaluation time point)>0.7% or HbA1c<7% at each evaluation time point compared to Visit 2 (randomization)) at each time point of weeks 6, 12, 18, and 24 after administration of clinical trial drug • 7) Proportion of subjects achieving therapeutic response (HbA1c change (HbA1c at Visit 2—HbA1c at each evaluation time point)>1% or HbA1c<7% at each evaluation time point compared to Visit 2 (randomization)) at each time point of weeks 6, 12, 18, and 24 after administration of clinical trial drug

[1] = modified per-protocol set 2, enavogliflozin 0.3 mg, dapagliflozin 10 mg
[2] = per-protocol set, enavogliflozin 0.3 mg vs dapagliflozin 10 mg
[3] = per-protocol set, enavogliflozin 0.3 mg, dapagliflozin 10 mg

## OC[C@H]1O[C@@H](c2cc(Cc3ccc(C4CC4)cc3)c(Cl)c3c2CCO3)[C@H](O)[C@@H](O)[C@@H]1O [Enavogliflozin, (2S,3R,4R,5S,6R)-2-(7-chloro-6 (4-cyclopropylbenzyl)-2,3-dihydrobenzofuran-4-yl)-6-(hydroxymethyl)tetrahydro-2H-pyran-3,4,5-triol]
Modified per-protocol set 2
  Change from baseline in diastolic blood pressure, ANCOVA LS mean: −2.04 mmHg
  Change from baseline in diastolic blood pressure, LS mean difference (enavogliflozin − dapagliflozin): −0.16 mmHg
  Change from baseline in diastolic blood pressure, Mean: −2.76 mmHg
  Change from baseline in diastolic blood pressure, Median: −3.00 mmHg
  Diastolic blood pressure, Mean: 73.72 mmHg
  Diastolic blood pressure, Median: 74.00 mmHg
Modified per-protocol set 2, enavogliflozin 0.3 mg vs dapagliflozin 10 mg
  Change from baseline in systolic blood pressure, ANCOVA LS mean difference: 0.73 mmHg
[1]
  Change from baseline in systolic blood pressure, ANCOVA LS mean: −2.76 mmHg
  Change from baseline in systolic blood pressure, Mean: −3.67 mmHg
  Change from baseline in systolic blood pressure, Median: −3.00 mmHg
  Systolic blood pressure, Mean: 124.04 mmHg
  Systolic blood pressure, Median: 123.00 mmHg
per-protocol set
  Adiponectin, Mean: 6.20 µg/mL
  Adiponectin, Median: 5.40 µg/mL
  Change from baseline in HOMA-IR, ANCOVA LS mean: −0.94
  Change from baseline in HOMA-IR, LS mean difference (enavogliflozin − dapagliflozin): 0.05
  Change from baseline in HOMA-IR, Mean: −0.90
  Change from baseline in HOMA-IR, Median: −0.68
  Change from baseline in HOMA-β, ANCOVA LS mean: 8.13
  Change from baseline in HOMA-β, LS mean difference (enavogliflozin − dapagliflozin): 4.93
  Change from baseline in HOMA-β, Mean: 8.74
  Change from baseline in HOMA-β, Median: 4.35
  Change from baseline in UACR, ANCOVA LS mean: -8.76 g/kg
  Change from baseline in UACR, LS mean difference (enavogliflozin − dapagliflozin): 6.09 g/kg
  Change from baseline in UACR, Mean: -11.43 g/kg
  Change from baseline in UACR, Median: -0.50 g/kg
  Change from baseline in UGCR, ANCOVA LS mean: 58.10 mg/mg
  Change from baseline in UGCR, LS mean difference (enavogliflozin − dapagliflozin): 12.35 mg/mg
  Change from baseline in UGCR, Mean: 56.38 mg/mg
  Change from baseline in UGCR, Median: 54.10 mg/mg
  Change from baseline in adiponectin, ANCOVA LS mean: -0.10 µg/mL
  Change from baseline in adiponectin, LS mean difference (enavogliflozin − dapagliflozin): -0.47 µg/mL
  Change from baseline in adiponectin, Mean: -0.08 µg/mL
  Change from baseline in adiponectin, Median: 0.50 µg/mL
  Change from baseline in leptin, ANCOVA LS mean: -1.83 ng/mL
  Change from baseline in leptin, LS mean difference (enavogliflozin − dapagliflozin): 0.20 ng/mL
  Change from baseline in leptin, Mean: -1.75 ng/mL
  Change from baseline in leptin, Median: -0.94 ng/mL
  HOMA-IR (insulin resistance), Mean: 2.00
  HOMA-IR (insulin resistance), Median: 1.54
  HOMA-β (beta-cell function), Mean: 51.08
  HOMA-β (beta-cell function), Median: 38.70
  Leptin, Mean: 8.88 ng/mL
  Leptin, Median: 6.26 ng/mL
  UACR, Mean: 36.67 g/kg
  UACR, Median: 14.80 g/kg
  UGCR, Mean: 57.09 mg/mg
  UGCR, Median: 54.57 mg/mg
[2]
  Achieving HbA1c target of <6.5%, odds ratio (logistic regression model): 0.65
  Achieving HbA1c target of <7%, odds ratio (logistic regression model): 1.22
  Change from baseline in FPG, ANCOVA LS mean difference: -3.24 mg/dL
  Change from baseline in HbA1c, ANCOVA LS mean difference: −0.03 % p
  Change from baseline in body weight, ANCOVA LS mean difference: -0.13 kg
  Change from baseline in fasting C-peptide, ANCOVA LS mean difference: -0.01 ng/mL
  Therapeutic glycemic response 1, odds ratio (logistic regression model): 1.52
  Therapeutic glycemic response 2, odds ratio (logistic regression model): 1.16
  Therapeutic glycemic response 3, odds ratio (logistic regression model): 1.38
[3]
  Body weight, Mean: 67.13 kg
  Change from baseline in FPG, ANCOVA LS mean: -25.96 mg/dL
  Change from baseline in FPG, Mean: -25.72 mg/dL
  Change from baseline in FPG, Median: -24.50 mg/dL
  Change from baseline in HbA1c, ANCOVA LS mean: −0.73 % p
  Change from baseline in HbA1c, Mean: −0.74 % p
  Change from baseline in HbA1c, Median: −0.65 % p
  Change from baseline in body weight, ANCOVA LS mean: -1.92 kg
  Change from baseline in body weight, Mean: -1.87 kg
  Change from baseline in body weight, Median: -1.90 kg
  Change from baseline in fasting C-peptide, ANCOVA LS mean: -0.05 ng/mL
  Change from baseline in fasting C-peptide, Mean: -0.06 ng/mL
  Change from baseline in fasting C-peptide, Median: -0.07 ng/mL
  FPG, Mean: 114.21 mg/dL
  FPG, Median: 113.00 mg/dL

From patent US20260130933A1, “PHARMACEUTICAL COMPOSITION FOR PREVENTION OR TREATMENT OF NEPHROPATHY AND/OR DIABETES MELLITUS, COMPRISING ENAVOGLIFLOZIN” (DAEWOONG PHARMACEUTICAL CO., LTD., priority 2022, published 2026)
